# Test results published in ChEMBL document CHEMBL4304740, “Structure-Based Design of Selective β-Site Amyloid Precursor Protein Cleaving Enzyme 1 (BACE1) Inhibitors: Targeting the Flap to Gain Selectivity over BACE2” (J Med Chem, 2019).
# Experiments:
# [1] = in vitro; details: human, liver microsomes
# [2] = physchem; details: octanol/phosphate buffered saline, pH 7.4
# [3] = in vitro; details: mouse, liver microsomes
# [4] = in vivo; details: Crl:CD(ICR), mouse, brain/plasma, po, 30 mg/kg
"remaining at 0.5 h, 0.1 µM [1] [%]",logD [2],"remaining at 0.5 h, 0.1 µM [3] [%]",Kp [4],Structure (SMILES)
51,1.2,5,,C[C@]1(c2cc(NC(=O)c3cnc(OCF)cn3)ccc2F)N=C(N)SCC12CCOCC2
27,2.3,4.5,0.55,C[C@]1(c2cc(NC(=O)c3cnc(OCF)cn3)ccc2F)N=C(N)SCC12CCC(F)(F)CC2
